Assay [1] deals with T1, Lysine-α-ketoglutarate reductase (bifunctional lysine-α-ketoglutarate reductase/saccharopine dehydrogenase) (Mus musculus, UniProt Q99K67).
T1 construct: gene Aass; native bifunctional enzyme, partially purified from liver (15 000 x g supernatant, Blue Trisacryl column)
T1 sequence (Q99K67 28-926): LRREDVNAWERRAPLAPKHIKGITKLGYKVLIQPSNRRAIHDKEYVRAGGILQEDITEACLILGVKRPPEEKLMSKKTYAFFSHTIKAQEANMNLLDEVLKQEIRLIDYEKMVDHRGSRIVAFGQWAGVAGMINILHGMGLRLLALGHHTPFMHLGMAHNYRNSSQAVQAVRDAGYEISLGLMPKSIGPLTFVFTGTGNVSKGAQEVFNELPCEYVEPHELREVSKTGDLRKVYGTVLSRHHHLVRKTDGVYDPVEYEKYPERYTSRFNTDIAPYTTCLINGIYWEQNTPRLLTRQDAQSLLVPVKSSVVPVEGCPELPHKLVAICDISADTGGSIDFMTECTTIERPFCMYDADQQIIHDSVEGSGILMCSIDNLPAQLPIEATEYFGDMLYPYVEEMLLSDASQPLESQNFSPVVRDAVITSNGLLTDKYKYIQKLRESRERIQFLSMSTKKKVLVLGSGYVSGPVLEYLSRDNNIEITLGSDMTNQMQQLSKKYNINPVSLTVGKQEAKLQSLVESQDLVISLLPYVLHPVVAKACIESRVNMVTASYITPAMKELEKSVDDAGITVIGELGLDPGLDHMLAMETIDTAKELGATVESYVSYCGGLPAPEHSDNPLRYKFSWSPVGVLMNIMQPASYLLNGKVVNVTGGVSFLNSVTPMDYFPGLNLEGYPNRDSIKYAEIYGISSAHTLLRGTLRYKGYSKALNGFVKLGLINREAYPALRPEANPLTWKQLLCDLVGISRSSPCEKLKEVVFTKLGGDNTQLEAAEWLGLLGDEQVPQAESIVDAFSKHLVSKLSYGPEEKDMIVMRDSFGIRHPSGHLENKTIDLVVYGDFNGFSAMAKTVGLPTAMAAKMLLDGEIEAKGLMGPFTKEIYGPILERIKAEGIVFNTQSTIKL
Briefly: spectrophotometric enzyme assay (NADPH), partially purified native liver enzyme. The assay is classed as biochemical.

For assay [2], the target named is T1, Lysine-α-ketoglutarate reductase (bifunctional lysine-α-ketoglutarate reductase/saccharopine dehydrogenase). Described as above. In kind it is biochemical. The settings on record: 25 mM Hepes pH 8.0, 30°C, 0.15 mM NADPH, 1 mM dithiothreitol, 10 mM lysine, 2 mM α-ketoglutarate.

For `O=C(O)CC[C@H](O)C(=O)O` [L-2-hydroxyglutarate], the affinity in assay [1], expressed as Ki, was 700 µM. Turning to `O=C(O)CC[C@@H](O)C(=O)O` [D-2-hydroxyglutarate], in assay [2], the “spectrophotometric enzyme assay (NADPH), partially purified native liver enzyme” value is “almost no inhibition was observed with D-2-hydroxyglutarate”.

(Values after paper PMC4357467, “A Mouse Model of L-2-Hydroxyglutaric Aciduria, a Disorder of Metabolite Repair” (PLoS ONE, 2015).)
